The text below walks through data of patent publication US12064407B2 (priority 2017, dated 2024).

Read-outs that look alike come from different tables or passages of the source.

In one assay the test system is CaV1.2 CCAT. As to conditions: 2.5 mM EGTA; 65 mM KCI; 100 μM glutamate; cited from earlier work.
The next assay concerns CTXLP. The assay is described as follows: Endogenous CTXLP in SVGA astrocytes treated with gambogic acid. The class given is cell-based, human. As to conditions: SVGA cells, gambogic acid 0.25 and 0.5 μM. As to the method:
FIG. 57 depicts that endogenous levels of CTXLP in human astrocytes can be depleted in the presence of gambogic acid. Human astrocytic cell line SVGA were treated with increasing doses of gambogic acid in the low micromolar range (0.25 and 0.5 μM).

Assay [1] has as its system NOGO-A. The following applies: ReNcell CX neurospheres, 24 hours, 1 ng/ml TNFα; for TNFα-induced NOGO-A expression in human neurospheres: 0.5 μM GA.
Experimental: (§1) The ReNcell CX neuroprogenitor cell line was grown in suspension to produce human neurospheres (approximately 0.5 mm diameter). Neurospheres were treated for 24 hours in neurobasal media alone, or with or without 1 ng/ml TNFα and/or 0.5 μM gambogic acid (GA). Cells were collected, protein extracted, and western blot performed to measure the expression of soluble (standard lysis) and insoluble (RIPA lysis) proteins for ERVK CTXLP, CaV2.2 C-terminal calcium channel-associated transcriptional regulator (CaV2.2 CCAT) and NOGO-A, as compared to β-actin loading control.
The subject of assay [2] is NOGO-A. The following applies: 24 hours, GA 0.1, 0.25, 1 and 2.5 μM.
Experimental: The ERVK-expressing NCCIT teratocarcinoma cell line was grown in a monolayer in RMPI 1640 media supplemented with FetalGro. Cells were treated for 24 hours with increasing doses of gambogic acid (GA, 0.1, 0.25, 1 and 2.5 μM). Cells were collected, protein extracted, and western blot performed to measure the expression of ERVK CTXLP, CaV2.2 C-terminal calcium channel-associated transcriptional regulator (CaV2.2 CCAT) and NOGO-A, as compared to β-actin loading control.
The test system of assay [3] is ERVK CTXLP. As to conditions: ReNcell CX neurospheres, 24 hours, 1 ng/ml TNFα; for TNFα-induced CTXLP expression in human neurospheres: 0.5 μM GA.
Experimental: as §1
The subject of assay [4] is ERVK CTXLP. As to conditions: ReNcell-derived neurons, 24 hours, n=1.
Experimental: ReNcell-derived neurons were treated with increasing doses of pro-inflammatory cytokines TNFα or LIGHT for 24 hours.
The subject of assay [5] is interferon response elements (ISREs) within the ERVK promoter (5′ LTR). The class given is binding, human.
In assay [6] the target is T1, NOGO-A (Homo sapiens, UniProt Q9NQC3).
T1 construct: host or cells: ALS patients (clinical trials cited from the literature)
T1 sequence (Q9NQC3 1-1192): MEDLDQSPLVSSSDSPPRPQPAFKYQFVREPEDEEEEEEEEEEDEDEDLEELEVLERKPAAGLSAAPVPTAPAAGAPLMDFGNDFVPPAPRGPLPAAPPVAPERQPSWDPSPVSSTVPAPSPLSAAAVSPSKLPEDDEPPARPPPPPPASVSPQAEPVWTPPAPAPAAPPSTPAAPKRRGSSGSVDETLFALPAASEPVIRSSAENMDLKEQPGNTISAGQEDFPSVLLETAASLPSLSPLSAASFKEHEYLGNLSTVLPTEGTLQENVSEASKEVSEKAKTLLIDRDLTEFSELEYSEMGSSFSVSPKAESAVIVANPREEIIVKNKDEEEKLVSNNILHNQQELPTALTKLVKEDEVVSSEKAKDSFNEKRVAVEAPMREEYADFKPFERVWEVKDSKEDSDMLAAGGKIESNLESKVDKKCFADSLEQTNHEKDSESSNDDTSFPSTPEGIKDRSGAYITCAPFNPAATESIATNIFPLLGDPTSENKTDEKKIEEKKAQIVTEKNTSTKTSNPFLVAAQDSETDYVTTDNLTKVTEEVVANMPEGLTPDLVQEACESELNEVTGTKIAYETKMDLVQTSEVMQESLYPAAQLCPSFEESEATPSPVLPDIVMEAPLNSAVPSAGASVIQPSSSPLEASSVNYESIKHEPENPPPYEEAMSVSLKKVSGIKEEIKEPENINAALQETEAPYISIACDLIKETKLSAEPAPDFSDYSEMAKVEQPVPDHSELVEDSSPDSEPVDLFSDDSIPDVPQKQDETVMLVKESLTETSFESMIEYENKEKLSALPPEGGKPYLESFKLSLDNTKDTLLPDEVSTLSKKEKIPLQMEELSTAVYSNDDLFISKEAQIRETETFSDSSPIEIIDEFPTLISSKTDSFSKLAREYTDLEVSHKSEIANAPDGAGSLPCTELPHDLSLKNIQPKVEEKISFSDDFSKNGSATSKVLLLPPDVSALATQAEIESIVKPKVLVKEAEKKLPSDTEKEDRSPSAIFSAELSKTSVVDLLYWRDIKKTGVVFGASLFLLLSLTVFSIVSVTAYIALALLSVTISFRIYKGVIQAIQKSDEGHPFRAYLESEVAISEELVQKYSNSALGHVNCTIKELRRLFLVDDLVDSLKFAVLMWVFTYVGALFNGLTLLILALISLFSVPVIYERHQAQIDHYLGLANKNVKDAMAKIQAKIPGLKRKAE
As to conditions: patients with ALS, intravenous infusions; cited from earlier work.

Assay [7] relates to NF-κB p65. The class given is cell-based.
The test system of assay [8] is CaV2.2 calcium channel-associated transcription regulator (CCAT). In kind it is cell-based, human.
Assay [9] concerns NF-κB p65 and p50 proteins. In kind it is cell-based, human.
In another assay the test system is IRF7. The class given is cell-based.
For assay [10], the system named is NF-κB p65. In kind it is cell-based. The source holds these as a separate data set.

For `O=C(O)CN(CCOCCOCCN(CC(=O)O)CC(=O)O)CC(=O)O` [EGTA], the “CaV1.2 CCAT nuclear localization / nuclear CCAT levels in neurons” value in the assay with CaV1.2 CCAT is recorded as “promote”.
For the molecule `CC(C)=CCC[C@]1(C)C=Cc2c(O)c3c(c(CC=C(C)C)c2O1)O[C@]12C(=C[C@@H]4C[C@H]1C(C)(C)O[C@@]2(C/C=C(/C)C(=O)O)C4=O)C3=O` [Gambogic acid, gambogic acid], the “endogenous levels of CTXLP in human astrocytes” value with CTXLP was “depleted”. For the same molecule, the “TNFα-induced NOGO-A expression in human neurospheres” value is “blocked” with NOGO-A [1] (listed as GA) and “ameliorate” with NOGO-A [1] (listed as gambogic acid). The “NOGO-A expression in NCCIT cells” value in the assay with NOGO-A [2] was “potent inhibitor of Nogo-A”; in the assay with NOGO-A [2] (listed as GA) it was “dose-dependently reduces”. Also, the “TNFα-induced CTXLP expression in human neurospheres” value with ERVK CTXLP [3] is listed as “blocks”; in the assay on ERVK CTXLP [3] (listed as gambogic acid), “reduce inducible CTXLP expression”.
With `[Cl-].[K+]` [KCI], the “CaV1.2 CCAT nuclear localization / nuclear CCAT levels in neurons” value in the assay on CaV1.2 CCAT was “decreased nuclear CCAT levels”.
In the case of `[Ca+2].[Cl-].[Cl-]` [calcium chloride], the “caspase-3 expression in CTXLP-treated SVGA cells in the presence of excess calcium” value in the assay with SVGA cells is on record as “blocked”.
`N[C@@H](CCC(=O)O)C(=O)O` [glutamate]: the “CaV1.2 CCAT nuclear localization / nuclear CCAT levels in neurons” value with CaV1.2 CCAT is “decreased nuclear CCAT levels”.
In the case of TNFα, in the assay with ERVK CTXLP [4], the “cytokine dose giving optimal enhancement of CTXLP expression (90 kDa form)” value came to 1 ng/mL. The “NOGO-A expression in neurospheres on TNFα” value with NOGO-A [1] is listed as “enhances”. Besides, the “CTXLP chromatin binding on cytokine stimulation” value in [5] is recorded as “Notable increase”. The “CTXLP expression in neurospheres on TNFα” value in the assay with ERVK CTXLP [3] was “enhances”.

B1: Ozanezumab: human anti-Nogo-A antibody from GlaxoSmithKline (antibody, chains of the INN, looked up, V domains shown)
VH: QVQLVQSGAEVKKPGASVKVSCKASGYTFTSYWMHWVRQAPGQGLEWIGNINPSNGGTNYNEKFKSKATMTRDTSTSTAYMELSSLRSEDTAVYYCELMQGYWGQGTLVTVSS
VL: DIVMTQSPLSNPVTLGQPVSISCRSSKSLLYKDGKTYLNWFLQRPGQSPQLLIYLMSTRASGVPDRFSGGGSGTDFTLKISRVEAEDVGVYYCQQLVEYPLTFGQGTKLEIK
With B1, the “outcome of Phase II clinical ALS trials” value with NOGO-A [6] is given as “negative results”.

B2: LIGHT: lymphotoxin-like inducible member of the TNF superfamily protein, pro-inflammatory cytokine (protein, UniProt O43557 83-240, looked up)
Tumor necrosis factor ligand …: LIQERRSHEVNPAAHLTGANSSLTGSGGPLLWETQLGLAFLRGLSYHDGALVVTKAGYYYIYSKVQLGGVGCPLGLASTITHGLYKRTPRYPEELELLVSQQSPCGRATSSSRVWWDSSFLGGVVHLEAGEKVVVRVLDERLVRLRDGTRSYFGAFMV
With B2, in the assay with ERVK CTXLP [4], the “cytokine dose giving optimal enhancement of CTXLP expression (90 kDa form)” value is 10 ng/mL.

B3: ERVK SU: ERVK envelope surface unit protein devoid of the CTXLP domain (SEQ ID NO: 3) (protein)
chain: MNPSEMQRKAPPRRRRHRNRAPLTHKMNKMVTSEEQMKLPSTKKAEPPTWAQLKKLTQLATKYLENTKVTQTPESMLLAALMIVSMVVSLPMPAGAAAANYTYWAYVPFPPLIRAVTWMDNPIEIYVNDSVWVPGPTDDCCPAKPEEEGMMINISIGYRYPPICLGRAPGCLMPAVQNWLVEVPTVSPISRFTYHMVSGMSLRPRVNYLQDFSYQRSLKFRPKGKPCPKEIPKESKNTEVLVWEECVANSAVILQNNEFGTLIDWAPRGQFYHNCSGQTQSCPSAQVSPAVDSDLTESLDKHKHKKLQSFYPWEWGEKGISTARPKIISPVSGPEHPELWRLTVASHHIRIWSGNQTLETRDRKPFYTIDLNSSLTVPLQSCVKPPYMLVVGNIVIKPDSQTITCENCRLLTCIDSTFNWQHRILLVRAREGVWIPVSMDRPWEASPSVHILTEVLKGVLNRSKR
modifications: Endogenous retrovirus K (from homo sapiens)
With B3, in the assay on SVGA cells, the “continued replication / cell density at later time points” value is “able to continue to replicate”. Moreover, the “mRNA expression of NF-κB p65” value in the assay on NF-κB p65 [7] is recorded as “marked increase”. For the same molecule, the “CaV2.2 CCAT (75 kDa) expression in SVGA cells” value in [8] is recorded as “not”. Besides, the “NF-κB p65 and p50 protein expression” value in assay [9] is “not”. Further, the “mRNA expression of IRF7” value in the assay with IRF7 was “neither protein was able to trigger an upregulation”. Moreover, in the assay with NF-κB p65 [10], the “NF-κB p65 protein expression” value was “unable”.
